Earlier results on one substance are cited in patent publication US20040139488A1, “Compositions and methods for enhancing disease resistance in fish” (priority 2002, published 2004).

The test system of series [1] is Aeromonas salmonicida. Conditions: synthesized, HPLC-purified peptide, in vitro.
For series [2], the system named is E. ictaluri. Conditions: synthesized, HPLC-purified peptide, in vitro.

Regarding “cecropin B: mature cecropin B from Hyalophora cecropia (SEQ ID NO:19), synthesized peptide purified by high-pressure liquid chromatography (KWKVFKKIEKMGRNIRNGIVKAGPAIAVLGEAKALG; listed as Hyalophora cecropia)”, the “bactericidal activity against Aeromonas salmonicida” value in series [1] is “possess the predicted bactericidal activity”. For the same substance, the “bactericidal activity against E. ictaluri” value in series [2] is given as “possess the predicted bactericidal activity”.
